In paper PMC8443589, “Modelling human liver fibrosis in the context of non-alcoholic steatohepatitis using a microphysiological system” (Communications Biology, 2021):

System: liver MPS NASH model (PHH, KC and HSC co-cultures, high fat)
Assay: Secreted cytokine/biomarker profile (Luminex, ELISA) of liver MPS NASH model dosed with OCA or ELF
Assay type: cell-based, human
Protocol: Fig. 3 Obeticholic acid and Elafibranor both modulate inflammatory and fibrosis phenotype in liver MPS NASH model and phenotype can additionally be reversed with dietary changes. PHH, KC and HSC co-cultures were cultured in the MPS platform under high fat conditions and dosed with varying concentrations of Obeticholic acid (OCA) and Elafibranor (ELF) QD or vehicle control (control) for 10 days, following an initial 4-day pre-culture phase. a The secreted cytokine profile from liver microtissues was compared by Luminex to determine the effects of each compound on the inflammatory profile of the liver with samples analysed at day 8 and 14 of the culture. Data were normalised by Z-transformation to allow comparison of all analytes and presented as a heatmap. b The expression of fibrosis-associated genes was analysed in total RNA from control, OCA and ELF treated liver microtissues (highest concentration for each compound) using Human Fibrosis RT2 Profiler PCR Arrays. Gene expression changes are expressed as a fold change over control. c Liver microtissues were stained for collagen-type I, α-SMA, nuclei (DAPI - blue), phalloidin (green) and imaged by confocal microscopy. Representative images are shown and scale bars 200 µm. d Staining of microtissue was quantified by measuring total fluorescence intensity throughout individual microtissues, each data point represents an average of all the microtissues imaged within an MPS scaffold (min 8, max 20 microtissues). e PHH, KC and HSC co-cultures were cultured in the MPS platform under high fat or lean conditions for 30 days. Cultures either remained in the same type of media throughout or were switched at day 15 from fat media to lean media (Fat -> Lean). Cell culture medium samples were analysed for the presence of IL-6, f MCP-1, g TIMP-1, which were measured by ELISA. h Microtissues were stained with Oil-Red O to determine fat loading during culture period, total stain was quantified by absorbance at 510 nm. All datapoints shown, either as box-whisker plots highlighting mean and min-max or with error bars highlighting means ± SD. All data from a minimum of three independent cultures; statistical comparisons made to control samples unless other comparison shown.
Soluble biomarkers in cell culture medium from the MPS were analysed by enzyme-linked immunosorbent assay (ELISA); IL-6 was measured by Human IL-6 DuoSet ELISA (R&D Systems); MCP-1 was measured by Human CCL2/MCP-1 DuoSet ELISA (R&D Systems); pro-collagen 1 was measured by Human Pro-Collagen I α1 DuoSet (R&D Systems); TIMP-1 was measured by Human TIMP-1 Quantikine ELISA Kit (R&D Systems); Fibronectin was measured by Human Fibronectin DuoSet ELISA (R&D Systems); YKL-40 was measured by Human Chitinase 3-like 1 Quantikine ELISA Kit (R&D Systems); Albumin secretion was measured by Human Albumin AssayMax™ ELISA kit (Assay Pro, St. Charles, MO). For all assays, the manufacturer’s protocol was followed.
Cytokine profiles in cell culture medium samples were also analysed by Luminex array for determination of 38 analytes in total, consisting of cytokines, chemokines, and growth factors using the MILLIPLEX MAP Human Cytokine/Chemokine Magnetic Bead Panel - Premixed 38 Plex (Merck Millipore, USA).
Liver microtissues were cultured for 4 days in HEP-FAT medium, before dosing with obeticholic acid or elafibranor. Both compounds were dissolved in DMSO, diluted in cell culture medium (final DMSO concentration ≤1%) and added to microtissues during a full medium change every two days and in addition on the intervening days compounds were spiked into the media to increase drug concentration back to desired concentrations. Cultures were maintained in the presence of the compound, for a total of 10 days in the presence or absence of TGFβ.

Structure (SMILES): CSc1ccc(C(=O)/C=C/c2cc(C)c(OC(C)(C)C(=O)O)c(C)c2)cc1 [Elafibranor]
- inflammatory cytokines, including CXCL1, IL1-Rα, IL-6 and MCP-1 (10 days of compound treatment): concentration-dependent decrease
- CXCL1 fold change in production compared to control (ELF 1.3 µM QD, D8): 0.8888
- CXCL10 fold change in production compared to control (ELF 1.3 µM QD, D8): 0.9847
- FN1 fold change in production compared to control (ELF 1.3 µM QD, D8): 0.9865
- IL-1RA fold change in production compared to control (ELF 1.3 µM QD, D8): 0.559
- IL-4 fold change in production compared to control (ELF 1.3 µM QD, D8): 1.264
- IL-6 fold change in production compared to control (ELF 1.3 µM QD, D8): 0.3707
- IL-8 fold change in production compared to control (ELF 1.3 µM QD, D8): 1.017
- MCP-1 fold change in production compared to control (ELF 1.3 µM QD, D8): 1.109
- MIP-1a fold change in production compared to control (ELF 1.3 µM QD, D8): 0.8137
- MIP-1b fold change in production compared to control (ELF 1.3 µM QD, D8): 0.885
- TIMP-1 fold change in production compared to control (ELF 1.3 µM QD, D8): 0.8634
- VEGF fold change in production compared to control (ELF 1.3 µM QD, D8): 0.3678
- CXCL1 fold change in production compared to control (ELF 1.3 µM QD, D14): 0.5791
- CXCL10 fold change in production compared to control (ELF 1.3 µM QD, D14): 0.6755
- FN1 fold change in production compared to control (ELF 1.3 µM QD, D14): 1.109
- IL-1RA fold change in production compared to control (ELF 1.3 µM QD, D14): 0.3482
- IL-4 fold change in production compared to control (ELF 1.3 µM QD, D14): 0.8813
- IL-6 fold change in production compared to control (ELF 1.3 µM QD, D14): 0.3647
- IL-8 fold change in production compared to control (ELF 1.3 µM QD, D14): 0.625
- MCP-1 fold change in production compared to control (ELF 1.3 µM QD, D14): 0.9408
- MIP-1a fold change in production compared to control (ELF 1.3 µM QD, D14): 0.8725
- MIP-1b fold change in production compared to control (ELF 1.3 µM QD, D14): 1.297
- TIMP-1 fold change in production compared to control (ELF 1.3 µM QD, D14): 0.9244
- VEGF fold change in production compared to control (ELF 1.3 µM QD, D14): 0.5658
- CXCL1 fold change in production compared to control (ELF 13 µM QD, D8): 0.7659
- CXCL10 fold change in production compared to control (ELF 13 µM QD, D8): 0.8228
- FN1 fold change in production compared to control (ELF 13 µM QD, D8): 0.9502
- IL-1RA fold change in production compared to control (ELF 13 µM QD, D8): 0.4867
- IL-4 fold change in production compared to control (ELF 13 µM QD, D8): 1.05
- IL-6 fold change in production compared to control (ELF 13 µM QD, D8): 0.3808
- IL-8 fold change in production compared to control (ELF 13 µM QD, D8): 0.9446
- MCP-1 fold change in production compared to control (ELF 13 µM QD, D8): 0.8534
- MIP-1a fold change in production compared to control (ELF 13 µM QD, D8): 0.3878
- MIP-1b fold change in production compared to control (ELF 13 µM QD, D8): 0.4913
- TIMP-1 fold change in production compared to control (ELF 13 µM QD, D8): 0.6879
- VEGF fold change in production compared to control (ELF 13 µM QD, D8): 0.494
- CXCL1 fold change in production compared to control (ELF 13 µM QD, D14): 0.5325
- CXCL10 fold change in production compared to control (ELF 13 µM QD, D14): 0.6314
- FN1 fold change in production compared to control (ELF 13 µM QD, D14): 0.9442
- IL-1RA fold change in production compared to control (ELF 13 µM QD, D14): 0.3167
- IL-4 fold change in production compared to control (ELF 13 µM QD, D14): 1.0405
- IL-6 fold change in production compared to control (ELF 13 µM QD, D14): 0.4596
- IL-8 fold change in production compared to control (ELF 13 µM QD, D14): 0.6408
- MCP-1 fold change in production compared to control (ELF 13 µM QD, D14): 0.5
- MIP-1a fold change in production compared to control (ELF 13 µM QD, D14): 0.4932
- MIP-1b fold change in production compared to control (ELF 13 µM QD, D14): 0.6533
- TIMP-1 fold change in production compared to control (ELF 13 µM QD, D14): 0.6384
- VEGF fold change in production compared to control (ELF 13 µM QD, D14): 1.282
- CXCL1 fold change in production compared to control (ELF 65 µM QD, D8): 0.4476
- CXCL10 fold change in production compared to control (ELF 65 µM QD, D8): 0.3212
- FN1 fold change in production compared to control (ELF 65 µM QD, D8): 0.8989
- IL-1RA fold change in production compared to control (ELF 65 µM QD, D8): 0.1707
- IL-4 fold change in production compared to control (ELF 65 µM QD, D8): 0.5412
- IL-6 fold change in production compared to control (ELF 65 µM QD, D8): 0.2914
- IL-8 fold change in production compared to control (ELF 65 µM QD, D8): 0.5667
- MCP-1 fold change in production compared to control (ELF 65 µM QD, D8): 0.402
- MIP-1a fold change in production compared to control (ELF 65 µM QD, D8): 0.2899
- MIP-1b fold change in production compared to control (ELF 65 µM QD, D8): 0.5458
- TIMP-1 fold change in production compared to control (ELF 65 µM QD, D8): 0.784
- VEGF fold change in production compared to control (ELF 65 µM QD, D8): 0.6076
- CXCL1 fold change in production compared to control (ELF 65 µM QD, D14): 0.3166
- CXCL10 fold change in production compared to control (ELF 65 µM QD, D14): 0.3403
- FN1 fold change in production compared to control (ELF 65 µM QD, D14): 0.7375
- IL-1RA fold change in production compared to control (ELF 65 µM QD, D14): 0.07012
- IL-4 fold change in production compared to control (ELF 65 µM QD, D14): 0.3173
- IL-6 fold change in production compared to control (ELF 65 µM QD, D14): 0.09996
- IL-8 fold change in production compared to control (ELF 65 µM QD, D14): 0.4914
- MCP-1 fold change in production compared to control (ELF 65 µM QD, D14): 0.1355
- MIP-1a fold change in production compared to control (ELF 65 µM QD, D14): 0.3265
- MIP-1b fold change in production compared to control (ELF 65 µM QD, D14): 0.1355
- TIMP-1 fold change in production compared to control (ELF 65 µM QD, D14): 0.5288
- VEGF fold change in production compared to control (ELF 65 µM QD, D14): 1.5699
